According to patent US10159738B2, “Organic-inorganic hybrid solid having a modified outer surface” (CENTRE NATIONAL DE LA RECHERCHE SCIENTIFIQUE-CNRS, priority 2012, dated 2018):

Columns and labels:
[1] = COOH groups; cited from earlier work
J774 cell line = assay: Penetration in the J774 cell line (CLSM, ATP-BODIPY label); type: cell-based, murine; conditions: 50 μg/ml, 15 min to 24 h
Procedure: For this analysis the MIL-100s were labeled with a fluorophore: adenosine 5′-triphosphate BODIPY-FL (ATP-BODIPY, adenosine 5′-triphosphate, BODIPY® FL, Invitrogen). 1.25 mg of MIL-100 was incubated with 500 μL of an aqueous solution of ATP-BODIPY 10 nmol/ml, for 1 h, with stirring in the dark at room temperature. At the end of incubation, the nanoparticles were recovered by centrifugation at 5600×g for 10 min, and the supernatant was analyzed by spectrofluorimetry in order to quantify the level of absorption of the fluorophore. The nanoparticles were then incubated in 500 μl of water (unmodified sample) or of an aqueous solution of βCDP 1.25 mg/ml, for 1 h with stirring, at room temperature, in the dark. At the end of incubation, the nanoparticles were recovered by centrifugation at 5600×g for 10 min and resuspended in RMPI 10% FBS (fetal bovine serum) to a final concentration of 50 μg/ml. The cells of the J774 line had been cultured beforehand in 24-well plates (5×10^4 cells per well) on a sterile glass cover slip.
After 24 h of incubation in a humidified incubator at 37° C., the culture medium was replaced with 1 ml of the solutions of nanoparticles loaded with ATP-BODIPY (unmodified or surface-modified), or with free ATP-BODIPY. After various incubation times (15 min, 1 h, 4 h, 24 h), the culture medium was aspirated and the cells were fixed.

Row | Compound | pKa [1] | internalization in the cells (J774 cell line)
1 | O=C(O)c1cc(C(=O)O)cc(C(=O)O)c1 [trimesic acid, 1,3,5-benzenetricarboxylic acid] | 3.4 | 
2 | adenosine 5′-triphosphate, BODIPY® FL [ATP-BODIPY] |  | no fluorescence was observed in the cells
